The data set is described as follows: activity coefficient (dimensionless); of the first substance listed, at infinite dilution; xn = mol fraction of the nth substance listed. The note with it: 101 kPa, Liquid, Chromatography, x1 = 0.

The values that follow come from the NIST ThermoML archive (doi:10.1021/je300692s).

± gives the expanded uncertainty stated by the source.

`CCCCCC` [hexane] + CCCCCCCC[N+]1(C)CCCC1.O=S(=O)([N-]S(=O)(=O)C(F)(F)F)C(F)(F)F: the activity coefficient by setting is: (323 K) 5.01 ± 0.53; (333 K) 4.8 ± 0.5; (343.1 K) 4.05 ± 0.43.

On to `c1ccccc1` [benzene] + CCCCCC[N+]1(C)CCCC1.O=S(=O)([N-]S(=O)(=O)C(F)(F)F)C(F)(F)F, for which the activity coefficient (322.9 K) was 0.76 ± 0.08, the activity coefficient (333 K) came to 0.77 ± 0.08 and the activity coefficient (343.1 K) turned out to be 0.78 ± 0.08.

With `CCC(C)=O` [butanone] + CCCCCC[N+]1(C)CCCC1.O=S(=O)([N-]S(=O)(=O)C(F)(F)F)C(F)(F)F, the activity coefficient is, setting by setting: (322.9 K) 0.42 ± 0.05; (333 K) 0.42 ± 0.05; (343.1 K) 0.39 ± 0.05.

For the compound `CCCC(C)=O` [pentan-2-one] + CCCCCCCCCC[N+]1(C)CCCC1.O=S(=O)([N-]S(=O)(=O)C(F)(F)F)C(F)(F)F, the activity coefficient was determined as 0.52 ± 0.06 (322.6 K), 0.53 ± 0.06 (332.5 K) and 0.54 ± 0.06 (342.8 K).

`CC#N` [acetonitrile] + CCCCCCCC[N+]1(C)CCCC1.O=S(=O)([N-]S(=O)(=O)C(F)(F)F)C(F)(F)F: the activity coefficient turned out to be 0.43 ± 0.05 (323 K), 0.39 ± 0.05 (333 K) and 0.37 ± 0.04 (343.1 K).

In the case of `ClC(Cl)Cl` [trichloromethane] + CCCCCCCC[N+]1(C)CCCC1.O=S(=O)([N-]S(=O)(=O)C(F)(F)F)C(F)(F)F, the activity coefficient reads like this: (323 K) 0.56 ± 0.06; (333 K) 0.58 ± 0.06; (343.1 K) 0.53 ± 0.06.

Consider `CCCCCC` [hexane] + CCCCCCCCCC[N+]1(C)CCCC1.O=S(=O)([N-]S(=O)(=O)C(F)(F)F)C(F)(F)F, for which the activity coefficient runs as follows: (322.6 K) 3.97 ± 0.42; (332.5 K) 3.78 ± 0.4; (342.8 K) 3.68 ± 0.39.

Consider `CCCC(C)=O` [pentan-2-one] + CCCCCCCC[N+]1(C)CCCC1.O=S(=O)([N-]S(=O)(=O)C(F)(F)F)C(F)(F)F, for which the activity coefficient reads like this: (323 K) 0.49 ± 0.05; (333 K) 0.51 ± 0.06; (343.1 K) 0.48 ± 0.05.

For `Cc1ccccc1` [toluene] + CCCCCCCCCC[N+]1(C)CCCC1.O=S(=O)([N-]S(=O)(=O)C(F)(F)F)C(F)(F)F, the activity coefficient by setting is: (322.6 K) 0.77 ± 0.08; (332.5 K) 0.78 ± 0.08; (342.8 K) 0.8 ± 0.08.

On to `CCc1ccccc1` [ethylbenzene] + CCCCCC[N+]1(C)CCCC1.O=S(=O)([N-]S(=O)(=O)C(F)(F)F)C(F)(F)F, for which the activity coefficient (322.9 K) amounted to 1.38 ± 0.14, the activity coefficient (333 K) amounted to 1.43 ± 0.15 and the activity coefficient (343.1 K) was determined as 1.46 ± 0.15.

On to `c1ccsc1` [thiophene] + CCCCCCCCCC[N+]1(C)CCCC1.O=S(=O)([N-]S(=O)(=O)C(F)(F)F)C(F)(F)F, for which the activity coefficient is, setting by setting: (322.6 K) 0.6 ± 0.06; (332.5 K) 0.6 ± 0.06; (342.8 K) 0.61 ± 0.07.

As to `ClC(Cl)(Cl)Cl` [tetrachloromethane] + CCCCCCCC[N+]1(C)CCCC1.O=S(=O)([N-]S(=O)(=O)C(F)(F)F)C(F)(F)F, the activity coefficient reads like this: (323 K) 1.39 ± 0.14; (333 K) 1.3 ± 0.13; (343.1 K) 1.15 ± 0.12.

As for `C1CCCCCC1` [cycloheptane] + CCCCCCCC[N+]1(C)CCCC1.O=S(=O)([N-]S(=O)(=O)C(F)(F)F)C(F)(F)F, the activity coefficient by setting is: (323 K) 8.62 ± 0.91; (333 K) 12.1 ± 1.3; (343.1 K) 15.4 ± 1.6.

Consider `CCOCC` [diethyl ether] + CCCCCCCC[N+]1(C)CCCC1.O=S(=O)([N-]S(=O)(=O)C(F)(F)F)C(F)(F)F, for which the activity coefficient is, setting by setting: (323 K) 1.34 ± 0.14; (333 K) 1.34 ± 0.14; (343.1 K) 1.14 ± 0.12.

Take `ClC(Cl)(Cl)Cl` [tetrachloromethane] + CCCCCCCCCC[N+]1(C)CCCC1.O=S(=O)([N-]S(=O)(=O)C(F)(F)F)C(F)(F)F: the activity coefficient (322.6 K) was found to be 1.32 ± 0.14, the activity coefficient (332.5 K) was determined as 1.12 ± 0.11 and the activity coefficient (342.8 K) was determined as 1.31 ± 0.13.

Consider `c1ccsc1` [thiophene] + CCCCCC[N+]1(C)CCCC1.O=S(=O)([N-]S(=O)(=O)C(F)(F)F)C(F)(F)F, for which the activity coefficient (322.9 K) is 0.7 ± 0.07, the activity coefficient (333 K) was 0.71 ± 0.07 and the activity coefficient (343.1 K) amounted to 0.72 ± 0.08.

As to `c1ccncc1` [pyridine] + CCCCCC[N+]1(C)CCCC1.O=S(=O)([N-]S(=O)(=O)C(F)(F)F)C(F)(F)F, the activity coefficient (322.9 K) came to 0.52 ± 0.06, the activity coefficient (333 K) was found to be 0.52 ± 0.06 and the activity coefficient (343.1 K) amounted to 0.53 ± 0.06.

Turning to `ClC(Cl)Cl` [trichloromethane] + CCCCCCCCCC[N+]1(C)CCCC1.O=S(=O)([N-]S(=O)(=O)C(F)(F)F)C(F)(F)F, the activity coefficient reads like this: (322.6 K) 0.39 ± 0.05; (332.5 K) 0.39 ± 0.05; (342.8 K) 0.41 ± 0.05.

In the case of `CCC[N+](=O)[O-]` [1-nitropropane] + CCCCCCCC[N+]1(C)CCCC1.O=S(=O)([N-]S(=O)(=O)C(F)(F)F)C(F)(F)F, the activity coefficient is 0.55 ± 0.06 (323 K), 0.52 ± 0.06 (333 K) and 0.51 ± 0.06 (343.1 K).

Take `CC#N` [acetonitrile] + CCCCCCCCCC[N+]1(C)CCCC1.O=S(=O)([N-]S(=O)(=O)C(F)(F)F)C(F)(F)F: the activity coefficient is, setting by setting: (322.6 K) 0.49 ± 0.05; (332.5 K) 0.5 ± 0.06; (342.8 K) 0.49 ± 0.05.

Take `C1CCCCC1` [cyclohexane] + CCCCCCCC[N+]1(C)CCCC1.O=S(=O)([N-]S(=O)(=O)C(F)(F)F)C(F)(F)F: the activity coefficient amounted to 3.45 ± 0.36 (323 K), 3.31 ± 0.35 (333 K) and 3.06 ± 0.32 (343.1 K).

For the compound `Cc1cccc(C)c1` [1,3-dimethylbenzene] + CCCCCC[N+]1(C)CCCC1.O=S(=O)([N-]S(=O)(=O)C(F)(F)F)C(F)(F)F, the activity coefficient worked out at 1.28 ± 0.13 (322.9 K), 1.39 ± 0.14 (333 K) and 1.42 ± 0.15 (343.1 K).

For the compound `CCC(=O)CC` [pentan-3-one] + CCCCCCCC[N+]1(C)CCCC1.O=S(=O)([N-]S(=O)(=O)C(F)(F)F)C(F)(F)F, the activity coefficient runs as follows: (323 K) 0.45 ± 0.05; (333 K) 0.47 ± 0.05; (343.1 K) 0.44 ± 0.05.

For `C#CCCCCC` [1-heptyne] + CCCCCCCCCC[N+]1(C)CCCC1.O=S(=O)([N-]S(=O)(=O)C(F)(F)F)C(F)(F)F, the activity coefficient is, setting by setting: (322.6 K) 1.81 ± 0.19; (332.5 K) 1.83 ± 0.19; (342.8 K) 1.83 ± 0.19.

Consider `ClC(Cl)(Cl)Cl` [tetrachloromethane] + CCCCCC[N+]1(C)CCCC1.O=S(=O)([N-]S(=O)(=O)C(F)(F)F)C(F)(F)F, for which the activity coefficient runs as follows: (322.9 K) 1.78 ± 0.19; (333 K) 1.85 ± 0.19; (343.1 K) 1.86 ± 0.19.

On to `C#CCCCC` [1-hexyne] + CCCCCCCC[N+]1(C)CCCC1.O=S(=O)([N-]S(=O)(=O)C(F)(F)F)C(F)(F)F, for which the activity coefficient reads like this: (323 K) 1.57 ± 0.16; (333 K) 1.58 ± 0.16; (343.1 K) 1.34 ± 0.14.

In the case of `ClCCl` [dichloromethane] + CCCCCCCC[N+]1(C)CCCC1.O=S(=O)([N-]S(=O)(=O)C(F)(F)F)C(F)(F)F, the activity coefficient came out at 0.26 ± 0.04 (323 K), 0.27 ± 0.04 (333 K) and 0.28 ± 0.04 (343.1 K).

For `CCc1ccccc1` [ethylbenzene] + CCCCCCCCCC[N+]1(C)CCCC1.O=S(=O)([N-]S(=O)(=O)C(F)(F)F)C(F)(F)F, the activity coefficient reads like this: (322.6 K) 1.01 ± 0.05; (332.5 K) 1.04 ± 0.06; (342.8 K) 1.06 ± 0.06.

Regarding `CCCCCCCCC` [nonane] + CCCCCCCC[N+]1(C)CCCC1.O=S(=O)([N-]S(=O)(=O)C(F)(F)F)C(F)(F)F, the activity coefficient (323 K) turned out to be 11.3 ± 0.67, the activity coefficient (333 K) amounted to 10.7 ± 0.64 and the activity coefficient (343.1 K) amounted to 9.14 ± 0.55.

On to `CCCCCCCCCCC` [undecane] + CCCCCC[N+]1(C)CCCC1.O=S(=O)([N-]S(=O)(=O)C(F)(F)F)C(F)(F)F, for which the activity coefficient was 34.4 ± 3.6 (322.9 K), 31 ± 3.3 (333 K) and 30.1 ± 3.2 (343.1 K).

Take `C[N+](=O)[O-]` [nitromethane] + CCCCCCCCCC[N+]1(C)CCCC1.O=S(=O)([N-]S(=O)(=O)C(F)(F)F)C(F)(F)F: the activity coefficient (322.6 K) was 0.63 ± 0.07, the activity coefficient (332.5 K) amounted to 0.62 ± 0.07 and the activity coefficient (342.8 K) turned out to be 0.6 ± 0.06.

On to `Cc1ccccc1` [toluene] + CCCCCCCC[N+]1(C)CCCC1.O=S(=O)([N-]S(=O)(=O)C(F)(F)F)C(F)(F)F, for which the activity coefficient reads like this: (323 K) 0.76 ± 0.08; (333 K) 0.78 ± 0.08; (343.1 K) 0.74 ± 0.08.

For `CCCCCCC` [heptane] + CCCCCCCCCC[N+]1(C)CCCC1.O=S(=O)([N-]S(=O)(=O)C(F)(F)F)C(F)(F)F, the activity coefficient (322.6 K) was determined as 4.91 ± 0.52, the activity coefficient (332.5 K) turned out to be 4.75 ± 0.5 and the activity coefficient (342.8 K) turned out to be 4.62 ± 0.49.

Consider `CCCCCCCCCC` [decane] + CCCCCC[N+]1(C)CCCC1.O=S(=O)([N-]S(=O)(=O)C(F)(F)F)C(F)(F)F, for which the activity coefficient by setting is: (322.9 K) 26 ± 2.7; (333 K) 19 ± 2; (343.1 K) 22.7 ± 2.4.

As to `C[N+](=O)[O-]` [nitromethane] + CCCCCC[N+]1(C)CCCC1.O=S(=O)([N-]S(=O)(=O)C(F)(F)F)C(F)(F)F, the activity coefficient amounted to 0.57 ± 0.06 (322.9 K), 0.57 ± 0.06 (333 K) and 0.56 ± 0.06 (343.1 K).
